Consider one molecule from ChEMBL document CHEMBL4406913, “INCB050465 (Parsaclisib), a Novel Next-Generation Inhibitor of Phosphoinositide 3-Kinase Delta (PI3Kδ)” (ACS Med Chem Lett, 2019).

In data set [1] the test system is Pfeiffer. The experiment in a line: In vivo inhibition of PI3Kdelta in human Pfeiffer cells xenografted in SCID mouse assessed as reduction in AKT phosphorylation at Ser473 residue in tumor lysates at 1 mg/kg, po bid for 14 days measured at 4 hrs post last dose by Western blot analysis. As to conditions: Neoplasm, Lysate. In kind it is functional, organism-based. A general note: A xenograft is tissue or cells of one species grown in another, often human tumour cells in immunodeficient mice.

A short description of data set [2]: Oral bioavailability in rat at 4 mg/kg measured for 24 hrs by LC-MS/MS analysis. Format: ADME, organism-based. The note with it: in vivo.
Data set [3] is described as follows: Clearance in Beagle dog at 2 mg/kg, iv measured for 24 hrs by LC-MS/MS analysis. Format: ADME, organism-based, Canis lupus familiaris. As to conditions: in vivo.
The target of data set [4] is Cytochrome P450 2C19 (Homo sapiens, UniProt P33261). The experiment in a line: Inhibition of CYP2C19 in human liver microsomes at 0.1 to 25 uM using S-mephenytoin as substrate by LC/MS analysis. Format: ADME.
Sequence of Cytochrome P450 2C19 (P33261 whole entry): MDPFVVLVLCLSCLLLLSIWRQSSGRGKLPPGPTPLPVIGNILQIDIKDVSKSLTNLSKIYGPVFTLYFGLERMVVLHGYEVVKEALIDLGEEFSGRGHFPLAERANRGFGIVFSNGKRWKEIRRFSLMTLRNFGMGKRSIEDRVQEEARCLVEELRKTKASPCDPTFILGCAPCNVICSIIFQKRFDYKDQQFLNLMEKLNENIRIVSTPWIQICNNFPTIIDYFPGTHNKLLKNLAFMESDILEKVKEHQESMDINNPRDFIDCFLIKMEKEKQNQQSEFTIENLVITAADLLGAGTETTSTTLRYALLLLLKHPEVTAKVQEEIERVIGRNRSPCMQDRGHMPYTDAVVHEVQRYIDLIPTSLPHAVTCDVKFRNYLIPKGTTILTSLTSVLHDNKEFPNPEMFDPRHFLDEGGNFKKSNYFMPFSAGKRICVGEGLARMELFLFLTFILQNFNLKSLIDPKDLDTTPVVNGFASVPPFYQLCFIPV
Data set [5] in a line: Intrinsic clearance in human liver microsomes at 1 uM measured upto 30 mins by LC/MS analysis. In kind it is ADME, Microsome. As to conditions: read-out: CLH (converted). On the technique in general: Liver microsomes are a subcellular fraction often used to study metabolism.
Data set [6] concerns the target T1, Phosphatidylinositol 4,5-bisphosphate 3-kinase catalytic subunit delta isoform (Homo sapiens, UniProt O00329).
T1 sequence (O00329 whole entry): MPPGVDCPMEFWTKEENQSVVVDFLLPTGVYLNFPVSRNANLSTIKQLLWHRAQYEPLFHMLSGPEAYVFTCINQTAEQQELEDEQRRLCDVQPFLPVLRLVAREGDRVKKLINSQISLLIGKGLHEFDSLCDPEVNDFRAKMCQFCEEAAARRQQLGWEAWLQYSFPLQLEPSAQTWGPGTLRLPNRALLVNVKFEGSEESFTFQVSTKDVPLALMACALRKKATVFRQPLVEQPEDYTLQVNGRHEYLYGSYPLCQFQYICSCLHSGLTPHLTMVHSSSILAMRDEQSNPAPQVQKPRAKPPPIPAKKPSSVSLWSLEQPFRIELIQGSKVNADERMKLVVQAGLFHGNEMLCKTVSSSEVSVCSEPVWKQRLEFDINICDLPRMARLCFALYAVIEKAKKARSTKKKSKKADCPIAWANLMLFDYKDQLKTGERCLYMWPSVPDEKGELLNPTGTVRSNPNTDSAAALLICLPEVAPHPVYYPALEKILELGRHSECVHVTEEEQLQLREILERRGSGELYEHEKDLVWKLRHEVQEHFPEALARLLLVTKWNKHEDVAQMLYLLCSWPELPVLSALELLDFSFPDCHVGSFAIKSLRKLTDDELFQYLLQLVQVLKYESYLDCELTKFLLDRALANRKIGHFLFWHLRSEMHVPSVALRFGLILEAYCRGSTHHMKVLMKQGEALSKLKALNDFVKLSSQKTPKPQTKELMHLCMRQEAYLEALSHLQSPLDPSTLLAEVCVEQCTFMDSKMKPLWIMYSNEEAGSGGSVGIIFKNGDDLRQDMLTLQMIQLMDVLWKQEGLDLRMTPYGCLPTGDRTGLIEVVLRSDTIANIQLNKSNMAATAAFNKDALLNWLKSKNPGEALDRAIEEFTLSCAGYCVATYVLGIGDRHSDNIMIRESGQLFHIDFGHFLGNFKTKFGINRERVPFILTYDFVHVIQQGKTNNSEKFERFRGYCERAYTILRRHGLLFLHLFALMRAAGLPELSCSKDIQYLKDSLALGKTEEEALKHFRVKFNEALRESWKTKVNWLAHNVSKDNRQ
The data set can be described thus: Inhibition of PI3Kdelta (unknown origin) using D-myophosphatidylinositol 4,5-bisphosphate as substrate incubated for 120 mins by [gamma-33P]-ATP based scintillation counting method.

The nature of data set [7]: Clearance in rat at 4 mg/kg, iv measured for 24 hrs by LC-MS/MS analysis. In kind it is ADME, organism-based. As to conditions: in vivo.
A short description of data set [8]: Clearance in cynomolgus monkey at 2 mg/kg, iv measured for 24 hrs by LC-MS/MS analysis. The note with it: in vivo. In kind it is ADME, organism-based, Macaca fascicularis.
Data set [9] in a line: Oral bioavailability in Beagle dog at 4 mg/kg measured for 24 hrs by LC-MS/MS analysis. As to conditions: in vivo. In kind it is ADME, organism-based, Canis lupus familiaris.
Data set [10] deals with Voltage-gated inwardly rectifying potassium channel KCNH2 (Homo sapiens, UniProt Q12809). The data set can be described thus: Inhibition of human ERG expressed in HEK293 cells by voltage patch clamp assay. Format: cell-based.
Sequence of Voltage-gated inwardly rectifying potassium channel KCNH2 (Q12809 whole entry, canonical isoform): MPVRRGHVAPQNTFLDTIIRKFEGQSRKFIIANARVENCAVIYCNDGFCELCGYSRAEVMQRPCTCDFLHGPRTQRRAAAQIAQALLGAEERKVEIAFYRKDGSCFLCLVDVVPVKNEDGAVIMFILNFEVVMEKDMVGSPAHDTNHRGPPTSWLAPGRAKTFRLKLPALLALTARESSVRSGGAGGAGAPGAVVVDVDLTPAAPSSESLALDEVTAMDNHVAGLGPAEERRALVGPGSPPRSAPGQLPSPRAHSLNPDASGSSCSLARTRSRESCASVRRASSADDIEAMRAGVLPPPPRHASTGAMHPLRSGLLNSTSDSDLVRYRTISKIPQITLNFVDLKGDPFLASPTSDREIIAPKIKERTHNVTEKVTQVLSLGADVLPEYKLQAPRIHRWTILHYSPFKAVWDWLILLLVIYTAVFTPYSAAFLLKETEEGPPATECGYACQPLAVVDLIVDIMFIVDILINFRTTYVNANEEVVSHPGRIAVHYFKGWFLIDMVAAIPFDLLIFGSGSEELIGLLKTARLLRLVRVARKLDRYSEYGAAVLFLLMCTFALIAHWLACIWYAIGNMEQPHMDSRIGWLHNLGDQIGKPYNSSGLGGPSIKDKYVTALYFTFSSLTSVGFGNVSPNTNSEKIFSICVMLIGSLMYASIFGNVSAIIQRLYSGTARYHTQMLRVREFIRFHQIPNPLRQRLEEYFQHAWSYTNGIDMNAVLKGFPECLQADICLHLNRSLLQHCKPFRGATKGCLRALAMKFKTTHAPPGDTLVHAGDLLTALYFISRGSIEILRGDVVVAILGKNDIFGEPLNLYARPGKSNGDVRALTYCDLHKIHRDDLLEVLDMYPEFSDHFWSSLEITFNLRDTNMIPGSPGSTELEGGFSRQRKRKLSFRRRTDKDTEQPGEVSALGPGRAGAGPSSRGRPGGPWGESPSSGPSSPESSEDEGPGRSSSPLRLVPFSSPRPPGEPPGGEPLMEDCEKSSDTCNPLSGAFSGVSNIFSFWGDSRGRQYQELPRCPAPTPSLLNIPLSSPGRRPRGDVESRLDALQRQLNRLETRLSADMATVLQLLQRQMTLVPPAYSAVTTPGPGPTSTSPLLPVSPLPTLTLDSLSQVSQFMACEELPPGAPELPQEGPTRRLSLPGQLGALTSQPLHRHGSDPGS
Data set [11] concerns the target T2, Phosphatidylinositol 4,5-bisphosphate 3-kinase catalytic subunit delta isoform (Homo sapiens) (UniProt O00329).
T2 sequence (whole entry): T1 sequence (O00329 whole entry)
Description: Inhibition of PI3Kdelta (unknown origin) using D-myophosphatidylinositol 4,5-bisphosphate as substrate incubated for 120 mins by [gamma-33P]ATP based SPA assay

Data set [12] deals with Pfeiffer. The experiment in a line: Cytotoxicity against human Pfeiffer cells assessed as reduction in cell viability incubated for 4 days by [3H]-thymidine incorporation based liquid scintillation counter method. Format: functional. For orientation: Dividing cells build labelled thymidine or BrdU into new DNA.
Data set [13] can be described thus: Solubility of the compound at pH 7.4. Format: physicochemical. As to conditions: buffer.
Data set [14] concerns the target Phosphatidylinositol 4,5-bisphosphate 3-kinase catalytic subunit gamma isoform (Homo sapiens, UniProt P48736). The experiment in a line: Inhibition of PI3Kgamma (unknown origin) using D-myophosphatidylinositol 4,5-bisphosphate as substrate incubated for 120 mins by [gamma-33P]-ATP based scintillation counting method.
A short description of data set [15]: Permeability across apical to basolateral side in human Caco2 cells at 50 uM incubated for 120 mins by LC/MS analysis. As to conditions: Caco-2, read-out: permeability. In kind it is ADME, cell-based.
Data set [16] in a line: Terminal half life in rat at 4 mg/kg, iv measured for 24 hrs by LC-MS/MS analysis. As to conditions: in vivo, read-out: beta t1/2 (converted). In kind it is ADME, organism-based.
Data set [17] can be described thus: Oral bioavailability in cynomolgus monkey at 4 mg/kg measured for 24 hrs by LC-MS/MS analysis. Format: ADME, organism-based, Macaca fascicularis. As to conditions: in vivo.
The nature of data set [18]: Tmax in rat at 4 mg/kg, po measured for 24 hrs by LC-MS/MS analysis. As to conditions: in vivo. Format: ADME, organism-based.
Data set [19] deals with Pfeiffer. The data set can be described thus: Cytotoxicity against human Pfeiffer cells assessed as reduction in protein binding adjusted cell viability incubated for 4 days by [3H]-thymidine incorporation based liquid scintillation counter method. In kind it is functional.
A short description of data set [20]: Volume of distribution at steady state in rat at 4 mg/kg, iv measured for 24 hrs by LC-MS/MS analysis. As to conditions: in vivo, read-out: Vdss. Format: ADME, organism-based.
The nature of data set [21]: Volume of distribution at steady state in cynomolgus monkey at 2 mg/kg, iv measured for 24 hrs by LC-MS/MS analysis. Format: ADME, organism-based, Macaca fascicularis. The note with it: in vivo, read-out: Vdss.

pIC50: −log10 of the molar value. Values after ≈ are worked out from the molar mass of the structure shown. Active and inactive are the calls of the source. The rule behind the calls is not given here.

Sequence of Phosphatidylinositol 4,5-bisphosphate 3-kinase catalytic subunit gamma isoform (P48736 whole entry, canonical isoform): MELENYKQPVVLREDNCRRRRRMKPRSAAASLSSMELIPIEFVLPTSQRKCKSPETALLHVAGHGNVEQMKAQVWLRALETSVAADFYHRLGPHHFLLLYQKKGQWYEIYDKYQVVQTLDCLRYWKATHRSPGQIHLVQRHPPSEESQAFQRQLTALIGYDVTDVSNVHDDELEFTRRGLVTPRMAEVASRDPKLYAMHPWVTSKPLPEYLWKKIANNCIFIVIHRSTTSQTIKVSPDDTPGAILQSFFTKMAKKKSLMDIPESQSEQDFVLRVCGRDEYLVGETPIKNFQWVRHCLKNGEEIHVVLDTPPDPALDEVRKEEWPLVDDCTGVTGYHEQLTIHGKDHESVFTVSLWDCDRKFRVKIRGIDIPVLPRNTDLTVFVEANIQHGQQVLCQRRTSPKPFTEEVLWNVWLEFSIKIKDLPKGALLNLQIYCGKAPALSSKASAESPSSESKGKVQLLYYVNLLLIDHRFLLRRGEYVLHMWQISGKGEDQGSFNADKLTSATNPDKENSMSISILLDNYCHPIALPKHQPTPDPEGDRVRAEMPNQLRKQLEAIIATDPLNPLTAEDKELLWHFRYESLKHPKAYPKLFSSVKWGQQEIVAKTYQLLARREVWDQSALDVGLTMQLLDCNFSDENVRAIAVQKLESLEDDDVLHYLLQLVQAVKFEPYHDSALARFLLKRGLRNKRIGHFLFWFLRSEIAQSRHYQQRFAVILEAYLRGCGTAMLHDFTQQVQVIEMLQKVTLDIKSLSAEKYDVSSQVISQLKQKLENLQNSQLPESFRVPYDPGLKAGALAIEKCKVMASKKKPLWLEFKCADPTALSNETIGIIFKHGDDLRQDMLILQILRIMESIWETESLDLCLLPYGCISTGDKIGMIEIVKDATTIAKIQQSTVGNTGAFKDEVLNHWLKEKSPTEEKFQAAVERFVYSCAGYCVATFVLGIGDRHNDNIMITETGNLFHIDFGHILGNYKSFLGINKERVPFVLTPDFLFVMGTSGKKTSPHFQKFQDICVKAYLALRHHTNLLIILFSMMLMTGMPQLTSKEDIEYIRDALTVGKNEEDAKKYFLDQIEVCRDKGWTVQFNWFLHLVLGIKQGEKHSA

With `CCOc1c([C@H](C)n2nc(C)c3c(N)ncnc32)cc(Cl)c(F)c1[C@@H]1CNC(=O)C1` [PARSACLISIB], the inhibition result in [1] was “Active”. In addition, the results for the bioavailability in data set [2], in data set [9] and in data set [17] were 74%, 100% and 79%, respectively. In addition, the CL in [3] came out at 2%; in [7] it was 26%; in [8] it was 5%. Further, the “inhibition (INH)” value in [4] is on record as “Not Active”. The CLint scaled at 1 µM in data set [5] is 11.7 mL/min/kg. Besides, the pIC50 – broadly, the IC50 on a negative log10 scale, so that one unit is a factor of ten – in [6] is 8.96; in data set [10] it was 4.12; in data set [12] it was 8.60; in data set [14], under 5.00; in data set [19] it was 8.38. In [11], the inhibition entry is “inactive”. Further, the concentration in solution in [13] (solubility) came to 210 µg/mL (≈ 485 µM). In addition, the Papp A→B at 2 h, 50 µM in [15] came to 1 ×10⁻⁶ cm/s. The half-life in [16] was 4 h. In addition, the time to peak (Tmax) (as a rule, the time at which the peak concentration occurs) in data set [18] came to 0.3 h. Besides, the Vd in data set [20] turned out to be 1.54 L/kg; in [21], 0.72 L/kg.
